“Also recorded” adds a separate entry of the source. Where two headings read alike, the source gives them in different places.
Columns and labels:
[1] = system: N-methyl-D-aspartate-induced seizures; assay: N-methyl-D-aspartate (NMDA) induced convulsions in mice; assay type: in vivo, mice (male CF-1); details: for % Protected: 30 min before NMDA 250 mg/kg; for protection against N-methyl-D-asparate-induced seizures (in words): i.p.
Procedure: When mice (male CF-1; 25-30 g) are administered NMDA (250 mg/kg; IP) animals typically respond with seizure activity consisting of an initial staring, followed in rapid order by hindlimb scratching, increased locomotor activity, rearing behavior, clonic seizures, tonic extension and death.
All drugs were dissolved in saline (0.9%; w/v) and delivered by intraperitoneal injection in a volume of 1.0% (w/v) of body weight.

[2] = system: maximal electroshock induced seizures; assay: maximal electroshock (MES) induced seizures in mice (Example II); assay type: in vivo, mice (male CF-1); details: for % Protected: 30 min before testing
Procedure: All drugs were dissolved in saline (0.9%; w/v) and delivered intraperitoneally in a volume equal to 1 percent of body weight. Animals failing to show tonic hindlimb extension were scored as protected from MES-induced convulsions.

[3] = system: maximal electroshock seizures (tonic hindlimb extension); assay: maximal electroshock (MES) procedure for mice, transauricular (Example I); assay type: in vivo; details: for mice protected: 500 mg/kg i.p.
Procedure: For combination studies two separate injections were administered. […] The absence of tonic hindlimb extension was taken as evidence for seizure protection.

[4] = observed signs of toxicity in mice after ethosuximide; assay type: in vivo; details: 500 mg/kg i.p.
[5] = system: [^3 H]dextromethorphan receptor; details: cited from earlier work; for effect on [^3 H]dextromethorphan binding / binding to the dextromethorphan site (in words): central nervous system site; for IC50: read-out: IC50, inhibition of [^3 H]dextromethorphan binding, in vitro
[6] = rotorod-ataxia toxicity test (CNS side effects); details: mouse, in vivo
Text: (§1) Mice that were unable to maintain equilibrium for one continuous minute, given 3 opportunities were scored as ataxic.

[7] = system: transauricular maximal electroshock seizure (MES); details: cited from earlier work
[8] = system: calcium-induced spasms in smooth muscle; details: cited from earlier work
[9] = following 20 to 60 mg dextromethorphan p.o. in humans; cited from earlier work
[10] = system: CNS side effects (rotorod ataxia); assay: rotorod-ataxia toxicity test (CNS side effects); details: maximal therapeutic dose of dextromethorphan
Text: as §1

[11] = system: [^3 H]TCP-labeled-NMDA-linked receptor; details: cited from earlier work
[12] = rats, dogs and humans; cited from earlier work

## O=C(O)C1CN(CCCP(=O)(O)O)CCN1 (centres unmarked) [CPP, 3-(2-carboxypiperazin-4-yl)propyl-1-phosphono acid]
[1]; CPP 1.5 mg/kg i.p. alone
  % Protected: 12.5%
[1]; CPP 2.0 mg/kg i.p. alone
  % Protected: 37.5%
[1]
  protection against N-methyl-D-asparate-induced seizures (in words): afforded protection
[2]; CPP 5 mg/kg i.p. alone
  % Protected: 25%
[2]; CPP 10 mg/kg i.p. alone
  % Protected: 60%

## CCC1(C)CC(=O)NC1=O (centres unmarked) [Ethosuximide]
[3]; at one half hour
  mice protected: one in five
[3]; one hour after injection
  mice protected: none
[4]
  signs of sedation, ataxia and gross toxicity: all mice injected showed signs of sedation, ataxia and gross toxicity

## CN1[C@@H]2CC[C@H]1C[C@@H](OC(c1ccccc1)c1ccccc1)C2 [benztropine]
[5]
  effect on [^3 H]dextromethorphan binding / binding to the dextromethorphan site (in words): bind to the same central nervous system site

## CCN(CC)CCOC(=O)C1(c2ccccc2)CCCC1 [caramiphen]
[5]
  effect on [^3 H]dextromethorphan binding / binding to the dextromethorphan site (in words): bind to the same central nervous system site
  IC50: 1 to 75 nM

## NC(=O)N1c2ccccc2C=Cc2ccccc21 [carbamazepine, 5-H-dibenzepin-(5)-carboxamide]
[3]; CBM 1 mg/kg alone, 15 min before MES
  % Mice Protected: 0%
[3]; CBM 3 mg/kg alone, 15 min before MES
  % Mice Protected: 0%
[3]; CBM 6 mg/kg alone, 15 min before MES
  % Mice Protected: 25%
[3]; CBM 8 mg/kg alone, 15 min before MES
  % Mice Protected: 50%
[3]; CBM 9 mg/kg alone, 15 min before MES
  % Mice Protected: 75%
[3]; CBM 12 mg/kg alone, 15 min before MES
  % Mice Protected: 100%
[3]; CBM alone, 15 min
  ED50: 7.2 mg/kg
[5]
  effect on [^3 H]dextromethorphan binding / binding to the dextromethorphan site (in words): did not inhibit or enhance; also recorded: do not inhibit or enhance binding
[6]
  TD50 at […]: 44.8 mg/kg

## CCN(CC)CCOCCOC(=O)C1(c2ccccc2)CCCC1 [carbetapentane]
[5]
  effect on [^3 H]dextromethorphan binding / binding to the dextromethorphan site (in words): bind to the same central nervous system site
  IC50: 1 to 75 nM

## CN(C)CCCN1c2ccccc2Sc2ccc(Cl)cc21 [chlorpromazine]
[5]
  effect on [^3 H]dextromethorphan binding / binding to the dextromethorphan site (in words): bind to the same central nervous system site

## C(=C\c1ccccc1)/CN1CCN(C(c2ccccc2)c2ccccc2)CC1 [cinnarizine]
[5]
  effect on [^3 H]dextromethorphan binding / binding to the dextromethorphan site (in words): bind to the same central nervous system site

## c1ccc(C2(c3ccccc3)OC[C@H]([C@@H]3CCCCN3)O2)cc1 [dexoxadrol]
[5]
  effect on [^3 H]dextromethorphan binding / binding to the dextromethorphan site (in words): do not inhibit or enhance binding

## COc1ccc2c(c1)[C@]13CCCC[C@@H]1[C@H](C2)N(C)CC3 [dextromethorphan]
[3]; 0 mg/kg CBM + 10 mg/kg DM (DM alone)
  % Mice Protected: 0%
[3]; 0 mg/kg CBM + 20 mg/kg DM (DM alone)
  % Mice Protected: 8%
[3]; 10 and 20 mg/kg, with 0 CBM
  protection when administered alone (in words): little or no protection
[3]; DM 5 mg/kg i.p., one-half hour before MES
  % Protected: 0%
[3]; DM 10 mg/kg i.p., one-half hour before MES
  % Protected: 0%
[3]; DM 20 mg/kg i.p., one-half hour before MES
  % Protected: 8%
[3]; DM 25 mg/kg i.p., one-half hour before MES
  % Protected: 25%
[3]; DM 30 mg/kg i.p., one-half hour before MES
  % Protected: 37.5%
[3]; DM 35 mg/kg i.p., one-half hour before MES
  % Protected: 75%
[3]; DM 45 mg/kg i.p., one-half hour before MES
  % Protected: 87.5%
[3]; DM 55 mg/kg i.p., one-half hour before MES
  % Protected: 100%
[3]; Mus musculus, ip, 0.5 h, DM alone, i.p., one-half hour before MES, range in parentheses, read-out: ED50
  ED50: 29.2 mg/kg
[3]; alone, i.p., one-half hour before MES
  anticonvulsant activity (in words): dose dependent anticonvulsant activity
[1]; DM 10 mg/kg i.p. alone
  % Protected: 33%
[1]
  protection against N-methyl-D-asparate-induced seizures (in words): afforded protection
[7]; 30 mg/kg, by itself
  protection against transauricular maximal electroshock seizure (in words): provide protection against transauricular maximal electroshock seizure (MES)
[7]; standard testing conditions
  protection time against MES compared with dilantin (in words): somewhat longer protection time against MES than that exhibited by dilantin
[8]
  block of calcium-induced spasms in smooth muscle (in words): block calcium-induced spasms in smooth muscle
[9]
  absolute plasma levels: five
[5]; read-out: Kd, high affinity binding of [^3 H]dextromethorphan, homogenates of guinea pig, rat and mouse lower brainstem
  Kd: < 20 nM
[10]
  increment in carbamazepine's CNS side effects (in words): little increment in carbamazepine's CNS side effects
[2]; DM 6.6 mg/kg i.p. alone
  % Protected: 0%
[2]; DM 10 mg/kg i.p. alone
  % Protected: 16.6%
[2]; DM 27 mg/kg i.p. alone
  % Protected: 50%
[2]; DM 30 mg/kg i.p. alone
  % Protected: 66.6%
[2]; low vs higher doses of dextromethorphan combined with CPP
  effect of dextromethorphan on anticonvulsant activity of CPP (in words): readily apparent only when low doses of dextromethorphan were administered in combination with anticonvulsant doses of CPP; also recorded: higher doses of dextromethorphan were either ineffective to increase the anticonvulsant activity of CPP or, partially attenuated the activity
[11]
  binding at phencyclidine-labeled/N-methyl-D-asparate linked receptors (in words): bind at phencyclidine-labeled/N-methyl-D-asparate linked receptors

## CN1CC[C@@]23CCCC[C@@H]2[C@@H]1Cc1ccc(O)cc13 [dextrorphan]
[12]
  ratio of dextrorphan to dextromethorphan in plasma and urine: exceeds 100 to 1

## CN1C(=O)CN=C(c2ccccc2)c2cc(Cl)ccc21 [diazepam]
[5]
  effect on [^3 H]dextromethorphan binding / binding to the dextromethorphan site (in words): do not inhibit or enhance binding

## CN(C)CCOCCOC(=O)N1c2ccccc2Sc2ccccc21 [dimethoxanate]
[5]
  effect on [^3 H]dextromethorphan binding / binding to the dextromethorphan site (in words): bind to the same central nervous system site
  IC50: 1 to 75 nM

## OCCN1CCN(CC/C=C2/c3ccccc3Sc3ccc(C(F)(F)F)cc32)CC1 [flupenthinol]
[5]
  effect on [^3 H]dextromethorphan binding / binding to the dextromethorphan site (in words): bind to the same central nervous system site

## OCCN1CCN(CCCN2c3ccccc3Sc3ccc(C(F)(F)F)cc32)CC1 [fluphenazine]
[5]
  effect on [^3 H]dextromethorphan binding / binding to the dextromethorphan site (in words): bind to the same central nervous system site

## CNC1(c2ccccc2Cl)CCCCC1=O (centres unmarked) [ketamine]
[5]
  effect on [^3 H]dextromethorphan binding / binding to the dextromethorphan site (in words): do not inhibit or enhance binding

## COc1ccc2c(c1OC)C(=O)O[C@@H]2[C@H]1c2c(cc3c(c2OC)OCO3)CCN1C [noscapine]
[5]
  effect on [^3 H]dextromethorphan binding / binding to the dextromethorphan site (in words): markedly increased
[5]; listed as roscapine
  effect on [^3 H]dextromethorphan binding / binding to the dextromethorphan site (in words): bind to the same central nervous system site

## OCCN1CCN(CCCN2c3ccccc3C=Cc3ccccc32)CC1 [opipramol]
[5]
  effect on [^3 H]dextromethorphan binding / binding to the dextromethorphan site (in words): bind to the same central nervous system site

## OCCN1CCN(CCCN2c3ccccc3Sc3ccc(Cl)cc32)CC1 [perphenazine]
[5]
  effect on [^3 H]dextromethorphan binding / binding to the dextromethorphan site (in words): bind to the same central nervous system site

## c1ccc(C2(N3CCCCC3)CCCCC2)cc1 [phencyclidine]
[5]
  effect on [^3 H]dextromethorphan binding / binding to the dextromethorphan site (in words): do not inhibit or enhance binding

## CCC1(c2ccccc2)C(=O)NC(=O)NC1=O [phenobarbital]
[5]
  effect on [^3 H]dextromethorphan binding / binding to the dextromethorphan site (in words): do not inhibit or enhance binding

## Nc1ccccc1 [phenylamine]
[5]
  effect on [^3 H]dextromethorphan binding / binding to the dextromethorphan site (in words): bind to the same central nervous system site

## O=C(OCCOCCN1CCCCC1)N1c2ccccc2Sc2cccnc21 [pipazethate]
[5]
  effect on [^3 H]dextromethorphan binding / binding to the dextromethorphan site (in words): bind to the same central nervous system site

## CN1CCN(CCCN2c3ccccc3Sc3ccc(Cl)cc32)CC1 [prochlorperazine]
[5]
  effect on [^3 H]dextromethorphan binding / binding to the dextromethorphan site (in words): bind to the same central nervous system site

## CC(CN1c2ccccc2Sc2ccccc21)N(C)C (centres unmarked) [promethazine]
[5]
  effect on [^3 H]dextromethorphan binding / binding to the dextromethorphan site (in words): bind to the same central nervous system site

## CN1CCN(CCCN2c3ccccc3Sc3ccc(C(F)(F)F)cc32)CC1 [trifluorperazine]
[5]
  effect on [^3 H]dextromethorphan binding / binding to the dextromethorphan site (in words): bind to the same central nervous system site

## CC(CN(C)C)CN1c2ccccc2Sc2ccccc21 (centres unmarked) [trimeprazine]
[5]
  effect on [^3 H]dextromethorphan binding / binding to the dextromethorphan site (in words): bind to the same central nervous system site
